Among the data in ChEMBL document CHEMBL2203205 (Eur J Med Chem, 2012) are IC50 and inhibition values, retold here.

Assay [1] has as its target Nitric oxide synthase, inducible (Homo sapiens, UniProt P35228). In words: Inhibition of recombinant human iNOS expressed in baculovirus-infected Sf9 cells assessed as conversion of [3H]-larginine to [3H]-L-citrulline preincubated for 15 mins measured after 45 mins by liquid scintillation counting.
The target in a further assay is Nitric oxide synthase 3 (Homo sapiens, UniProt P29474). In words: Inhibition of recombinant human eNOS expressed in baculovirus-infected Sf9 cells assessed as conversion of [3H]-larginine to [3H]-L-citrulline preincubated for 15 mins measured after 45 mins by liquid scintillation counting.
Sequence of Nitric oxide synthase 3 (P29474 whole entry, looked up): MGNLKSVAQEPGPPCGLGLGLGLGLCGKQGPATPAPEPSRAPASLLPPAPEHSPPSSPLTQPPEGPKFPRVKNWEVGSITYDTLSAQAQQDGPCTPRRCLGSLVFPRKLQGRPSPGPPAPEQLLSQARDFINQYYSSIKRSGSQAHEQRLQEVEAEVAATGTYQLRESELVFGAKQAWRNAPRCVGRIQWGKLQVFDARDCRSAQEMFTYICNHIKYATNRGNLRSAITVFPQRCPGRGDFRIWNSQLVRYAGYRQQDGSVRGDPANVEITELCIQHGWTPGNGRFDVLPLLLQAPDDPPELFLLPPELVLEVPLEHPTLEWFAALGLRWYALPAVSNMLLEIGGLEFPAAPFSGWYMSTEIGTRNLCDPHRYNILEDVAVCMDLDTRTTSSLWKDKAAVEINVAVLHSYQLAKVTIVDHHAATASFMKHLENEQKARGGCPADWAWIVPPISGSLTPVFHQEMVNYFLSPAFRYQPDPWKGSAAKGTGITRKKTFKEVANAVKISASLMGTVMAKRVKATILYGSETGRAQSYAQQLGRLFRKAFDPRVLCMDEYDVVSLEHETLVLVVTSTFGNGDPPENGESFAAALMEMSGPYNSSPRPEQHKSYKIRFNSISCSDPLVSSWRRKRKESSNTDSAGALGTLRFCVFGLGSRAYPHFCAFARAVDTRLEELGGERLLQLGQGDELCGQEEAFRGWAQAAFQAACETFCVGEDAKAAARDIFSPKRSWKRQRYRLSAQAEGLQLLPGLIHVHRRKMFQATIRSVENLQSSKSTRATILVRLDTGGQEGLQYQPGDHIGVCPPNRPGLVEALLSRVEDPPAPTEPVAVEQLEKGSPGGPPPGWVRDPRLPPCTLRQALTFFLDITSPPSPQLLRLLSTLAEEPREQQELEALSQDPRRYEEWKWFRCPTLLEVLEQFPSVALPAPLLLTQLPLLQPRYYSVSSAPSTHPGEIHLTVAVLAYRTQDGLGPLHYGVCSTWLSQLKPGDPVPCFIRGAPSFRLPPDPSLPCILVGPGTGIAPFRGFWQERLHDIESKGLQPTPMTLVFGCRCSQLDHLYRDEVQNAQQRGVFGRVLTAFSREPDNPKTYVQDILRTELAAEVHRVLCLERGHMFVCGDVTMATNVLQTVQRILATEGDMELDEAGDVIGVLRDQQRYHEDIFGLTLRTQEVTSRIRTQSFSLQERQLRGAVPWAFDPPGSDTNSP
In a further assay the target is Nitric oxide synthase 1 (Homo sapiens, UniProt P29475). The experiment in a line: Inhibition of recombinant human nNOS expressed in baculovirus-infected Sf9 cells assessed as conversion of [3H]-larginine to [3H]-L-citrulline preincubated for 15 mins measured after 45 mins by liquid scintillation counting.
Sequence of Nitric oxide synthase 1 (P29475 whole entry): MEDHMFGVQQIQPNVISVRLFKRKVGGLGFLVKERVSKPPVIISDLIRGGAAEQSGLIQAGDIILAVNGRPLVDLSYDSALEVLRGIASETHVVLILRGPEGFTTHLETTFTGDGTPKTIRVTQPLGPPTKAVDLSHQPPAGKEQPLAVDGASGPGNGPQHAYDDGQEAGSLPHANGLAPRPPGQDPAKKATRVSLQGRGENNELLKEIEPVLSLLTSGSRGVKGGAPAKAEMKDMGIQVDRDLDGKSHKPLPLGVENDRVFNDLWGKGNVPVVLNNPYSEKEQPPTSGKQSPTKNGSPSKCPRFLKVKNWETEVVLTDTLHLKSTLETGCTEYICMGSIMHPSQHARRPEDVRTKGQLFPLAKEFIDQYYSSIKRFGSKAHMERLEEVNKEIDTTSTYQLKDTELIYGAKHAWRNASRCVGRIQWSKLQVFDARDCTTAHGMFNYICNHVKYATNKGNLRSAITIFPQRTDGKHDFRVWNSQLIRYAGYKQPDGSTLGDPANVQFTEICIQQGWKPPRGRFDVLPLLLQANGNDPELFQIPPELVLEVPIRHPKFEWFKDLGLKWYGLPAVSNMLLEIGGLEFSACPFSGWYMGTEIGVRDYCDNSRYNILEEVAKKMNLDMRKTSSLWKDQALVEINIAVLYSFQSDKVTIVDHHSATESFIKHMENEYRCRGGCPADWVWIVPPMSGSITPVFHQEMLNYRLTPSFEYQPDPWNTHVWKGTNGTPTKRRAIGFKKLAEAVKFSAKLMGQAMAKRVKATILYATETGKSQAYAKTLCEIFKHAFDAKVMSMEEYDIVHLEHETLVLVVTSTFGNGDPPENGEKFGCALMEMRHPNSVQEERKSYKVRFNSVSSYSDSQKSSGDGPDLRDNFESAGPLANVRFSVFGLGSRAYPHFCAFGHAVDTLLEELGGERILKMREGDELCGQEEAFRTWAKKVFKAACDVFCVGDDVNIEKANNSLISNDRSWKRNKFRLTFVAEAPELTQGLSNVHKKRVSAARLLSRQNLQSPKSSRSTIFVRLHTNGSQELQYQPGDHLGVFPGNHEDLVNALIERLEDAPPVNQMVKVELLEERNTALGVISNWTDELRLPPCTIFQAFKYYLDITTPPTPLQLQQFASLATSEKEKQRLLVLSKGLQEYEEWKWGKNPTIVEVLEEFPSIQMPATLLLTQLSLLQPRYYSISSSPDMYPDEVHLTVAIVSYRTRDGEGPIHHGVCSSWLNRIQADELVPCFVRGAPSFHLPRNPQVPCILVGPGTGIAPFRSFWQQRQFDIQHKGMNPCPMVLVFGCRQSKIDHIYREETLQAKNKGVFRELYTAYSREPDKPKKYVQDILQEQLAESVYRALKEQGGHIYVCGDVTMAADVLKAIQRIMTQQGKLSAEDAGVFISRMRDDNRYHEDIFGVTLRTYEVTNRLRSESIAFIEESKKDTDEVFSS
In assay [2] the target is Substance-P receptor (Homo sapiens) (UniProt P25103). As to conditions: U-373MG ATCC.
Sequence of Substance-P receptor (Homo sapiens) (P25103 whole entry): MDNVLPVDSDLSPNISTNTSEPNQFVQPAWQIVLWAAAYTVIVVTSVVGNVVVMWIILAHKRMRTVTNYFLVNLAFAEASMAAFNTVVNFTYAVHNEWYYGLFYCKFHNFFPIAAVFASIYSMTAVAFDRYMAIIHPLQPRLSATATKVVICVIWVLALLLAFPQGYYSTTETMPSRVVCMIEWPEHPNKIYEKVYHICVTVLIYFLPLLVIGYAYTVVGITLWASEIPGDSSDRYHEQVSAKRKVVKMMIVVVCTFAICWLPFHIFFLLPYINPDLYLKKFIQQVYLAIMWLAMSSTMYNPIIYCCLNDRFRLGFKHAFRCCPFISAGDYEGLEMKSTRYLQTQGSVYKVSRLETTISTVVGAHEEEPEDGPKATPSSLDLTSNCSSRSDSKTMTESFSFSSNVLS
Description: Displacement of [125I]BH-SP from NK1 receptor in human U-373MG cells at 10 uM after 60 mins

Sequence of Nitric oxide synthase, inducible (P35228 whole entry, looked up): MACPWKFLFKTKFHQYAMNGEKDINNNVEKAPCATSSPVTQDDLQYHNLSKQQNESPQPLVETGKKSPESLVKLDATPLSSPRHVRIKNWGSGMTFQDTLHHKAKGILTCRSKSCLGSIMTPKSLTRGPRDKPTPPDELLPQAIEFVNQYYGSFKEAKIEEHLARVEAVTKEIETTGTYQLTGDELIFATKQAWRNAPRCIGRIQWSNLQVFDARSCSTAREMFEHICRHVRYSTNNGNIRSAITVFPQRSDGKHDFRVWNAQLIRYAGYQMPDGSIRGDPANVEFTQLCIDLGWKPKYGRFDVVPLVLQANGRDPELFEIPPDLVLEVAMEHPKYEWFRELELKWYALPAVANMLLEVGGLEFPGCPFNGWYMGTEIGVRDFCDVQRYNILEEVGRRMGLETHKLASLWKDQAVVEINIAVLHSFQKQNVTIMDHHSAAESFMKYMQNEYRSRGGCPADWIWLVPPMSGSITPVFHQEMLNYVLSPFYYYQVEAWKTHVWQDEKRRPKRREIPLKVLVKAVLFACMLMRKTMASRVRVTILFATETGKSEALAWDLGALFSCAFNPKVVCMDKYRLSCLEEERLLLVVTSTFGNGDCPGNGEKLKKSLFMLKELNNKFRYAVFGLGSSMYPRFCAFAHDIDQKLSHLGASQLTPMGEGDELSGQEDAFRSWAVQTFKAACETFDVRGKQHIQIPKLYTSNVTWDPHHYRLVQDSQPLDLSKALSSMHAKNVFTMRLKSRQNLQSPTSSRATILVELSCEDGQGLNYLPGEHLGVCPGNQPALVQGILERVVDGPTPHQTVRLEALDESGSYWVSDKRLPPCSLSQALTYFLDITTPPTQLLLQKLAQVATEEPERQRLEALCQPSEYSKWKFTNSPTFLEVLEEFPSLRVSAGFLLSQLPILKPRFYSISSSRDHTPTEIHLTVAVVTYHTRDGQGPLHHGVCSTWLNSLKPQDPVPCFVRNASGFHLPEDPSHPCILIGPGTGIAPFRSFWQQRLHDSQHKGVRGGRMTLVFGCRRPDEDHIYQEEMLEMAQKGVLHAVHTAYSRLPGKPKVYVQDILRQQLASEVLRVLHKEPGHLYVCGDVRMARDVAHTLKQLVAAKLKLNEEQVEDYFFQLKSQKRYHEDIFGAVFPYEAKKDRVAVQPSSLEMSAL

In general, IC50 refers to the midpoint of a concentration-inhibition curve. Take `N=C(Nc1ccc2c(c1)CCN2C1CCNCC1)c1cccs1` [listing 1 of 2 here]: the values for the IC50 (in assay [1]; at Nitric oxide synthase 3; on Nitric oxide synthase 1) were 415000 nM, 40500 nM and 110 nM, respectively.

Take `N=C(Nc1ccc2c(c1)CCN2C1CCN(CCO)CC1)c1cccs1`: the IC50 in assay [1] is 1580 nM; at Nitric oxide synthase 3 it was 39300 nM; at Nitric oxide synthase 1, 160 nM.

As to `CNC1CCC(N2CCc3cc(NC(=N)c4cccs4)ccc32)CC1` (trans isomer), the IC50 was found to be 4870 nM in assay [1] and 100 nM at Nitric oxide synthase 1.

For the molecule `CNC1CCC(N2CCc3cc(NC(=N)c4cccs4)ccc32)CC1` (cis isomer), the IC50 in assay [1] came to 4080 nM; on Nitric oxide synthase 1 it was 200 nM.

`CN1CCC(N2CCc3cc(NC(=N)c4cccs4)ccc32)CC1`: the IC50 in assay [1] came to 4670 nM; at Nitric oxide synthase 3, 58200 nM; at Nitric oxide synthase 1 it was 200 nM.

In the case of `CN(C)CCN1CCc2cc(NC(=N)c3cccs3)ccc21`, the 50% inhibitory concentration (IC50) in assay [1] was 4070 nM; at Nitric oxide synthase 3, 11400 nM; at Nitric oxide synthase 1 it was 40 nM.

For the molecule `N=C(Nc1ccc2c(c1)CCN2C1CCCNC1)c1cccs1` (racemic), the IC50 was determined as 52200 nM in assay [1], 94000 nM at Nitric oxide synthase 3 and 330 nM at Nitric oxide synthase 1.

`N=C(Nc1ccc2c(c1)CCN2CCN1CCCC1)c1cccs1`: the values for the IC50 (in assay [1]; at Nitric oxide synthase 3; at Nitric oxide synthase 1) were 410 nM, 37300 nM and 120 nM, respectively.

Consider `N=C(Nc1ccc2c(c1)CCN2CCNCCO)c1cccs1`, for which the values for the 50% inhibitory concentration (IC50) on Nitric oxide synthase 3 and on Nitric oxide synthase 1 were 10100 nM and 350 nM, respectively.

In the case of `CC1CC(N2CCc3cc(NC(=N)c4cccs4)ccc32)CCN1` (stereo in doubt), the concentration for half-maximal inhibition (IC50) in assay [1] came out at 1090 nM; on Nitric oxide synthase 3, 53700 nM; on Nitric oxide synthase 1, 710 nM.

Consider `CC1CC(N2CCc3cc(NC(=N)c4cccs4)ccc32)CCN1` (single isomer, unassigned; (+)), for which the 50% inhibitory concentration (IC50) is 1800 nM in assay [1], 51700 nM on Nitric oxide synthase 3 and 910 nM on Nitric oxide synthase 1.

For `N=C(Nc1ccc2c(c1)CCN2C(=O)CN1CCCC1)c1cccs1`, the half-maximal inhibitory concentration (IC50) in assay [1] amounted to 770 nM; at Nitric oxide synthase 3, 10500 nM; at Nitric oxide synthase 1, 620 nM.

For the molecule `CC1CC(N2CCc3cc(NC(=N)c4cccs4)ccc32)CCN1` (trans isomer), the IC50 in assay [1] was determined as 4750 nM; at Nitric oxide synthase 3, 36700 nM; at Nitric oxide synthase 1 it was 370 nM.

As for `CC1CC(N2CCc3cc(NC(=N)c4cccs4)ccc32)CCN1` (cis isomer), the values for the half-maximal inhibitory concentration (IC50) (in assay [1]; on Nitric oxide synthase 3; on Nitric oxide synthase 1) were 1170 nM, 124000 nM and 690 nM, respectively.

What is called inhibition is the change of the read-out against control, counted positive when it falls. With `N=C(Nc1ccc2c(c1)CCN2C1CCNCC1)c1cccs1` [listing 2 of 2 here], the inhibition in assay [2] is 12%.
